From article PMC8365602 (Journal of Medicinal Chemistry, 2021) come the findings set out here.

The series relates to CYP3A4. Put plainly: CYP3A4 expression in differentiated HepaRG cells. It counts as cell-based, human. Conditions: 48 h. The protocol: HepaRG cells were seeded at a density of 2.6 × 10^4 cells/cm^2 in Williams’ E medium supplemented with 2 mM GlutaMAX (Thermo Fisher Scientific, Waltham, MA), 100 U/mL penicillin, 100 μg/mL streptomycin, 10% HyClone FCS (Thermo Fisher Scientific), 5 μg/mL insulin, and […] hydrocortisone-hemisuccinate. At confluence after two weeks, HepaRG cells were shifted to a medium supplemented with 1.7% DMSO for two additional weeks to obtain confluent differentiated cultures containing equal proportions of hepatocyte-like and progenitors/primitive biliary-like cells. These differentiated hepatic cell cultures were exposed to the compounds in Williams’ E medium supplemented with 2% FCS plus 0.2% DMSO for 48 h. […]
The assay plate was imaged and analyzed using the Cell Health Profiling BioApplications (HCS Studio Cellomics software Version x.6.4.3 (Build 7207)) on the ArrayScan VTI HCS Reader (Thermo Fisher Scientific—Cellomics, Pittsburgh, PA) using the 20× objective (Zeiss, LD Plan Neofluar 20×/0.4 korr). […]
The CYP3A4 expression was quantified using an arbitrary unit of fluorescent mass representing the combination of intensity and area adjusted to cell number calculated by nuclei counting (Hoechst).

As to `C/C(=C\CC/C(C)=C/CC[C@]1(C)CCc2c(C)c(O)c(C)c(C)c2O1)CCC=C(CO)CO` [Compound 27a, α-amplexichromanol], the “CYP450 enzyme (CYP3A4) expression” value was “did not induce CYP450 enzyme expression”.
